What all share (test): Kinase selectivity, scanMAX Kinase assay panel (DiscoverX), % control at 1 uM
What all share (assay type): binding

The target of assay [1] is T1, scanMAX Kinase assay panel (Homo sapiens, UniProt O43283).
T1 construct: purchased DiscoverX
T1 sequence (O43283 1-966): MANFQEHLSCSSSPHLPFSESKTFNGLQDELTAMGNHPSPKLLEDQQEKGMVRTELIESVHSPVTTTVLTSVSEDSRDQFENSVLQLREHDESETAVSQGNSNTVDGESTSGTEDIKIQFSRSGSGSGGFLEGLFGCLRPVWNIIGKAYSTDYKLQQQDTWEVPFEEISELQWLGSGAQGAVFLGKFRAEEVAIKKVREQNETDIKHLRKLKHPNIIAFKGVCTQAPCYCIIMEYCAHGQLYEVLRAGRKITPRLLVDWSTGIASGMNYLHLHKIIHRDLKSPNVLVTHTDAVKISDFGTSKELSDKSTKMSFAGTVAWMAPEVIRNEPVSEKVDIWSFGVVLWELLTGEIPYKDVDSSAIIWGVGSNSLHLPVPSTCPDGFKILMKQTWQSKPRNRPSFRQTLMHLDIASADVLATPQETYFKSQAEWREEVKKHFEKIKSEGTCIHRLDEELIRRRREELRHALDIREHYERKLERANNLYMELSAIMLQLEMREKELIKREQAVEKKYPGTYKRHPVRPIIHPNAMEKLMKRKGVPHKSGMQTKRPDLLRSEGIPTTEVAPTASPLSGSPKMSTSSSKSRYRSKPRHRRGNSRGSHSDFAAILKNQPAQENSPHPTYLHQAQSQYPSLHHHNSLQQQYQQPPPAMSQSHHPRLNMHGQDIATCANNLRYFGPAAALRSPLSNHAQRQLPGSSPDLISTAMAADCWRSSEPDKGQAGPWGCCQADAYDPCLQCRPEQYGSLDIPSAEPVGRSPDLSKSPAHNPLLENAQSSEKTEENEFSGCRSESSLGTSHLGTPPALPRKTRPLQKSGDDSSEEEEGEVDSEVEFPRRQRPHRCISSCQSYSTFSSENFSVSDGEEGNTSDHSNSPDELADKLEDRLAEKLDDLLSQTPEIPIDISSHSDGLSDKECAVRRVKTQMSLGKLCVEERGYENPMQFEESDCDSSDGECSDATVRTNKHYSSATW
The settings on record: LZK; 1 uM; read-out: Percent Control (%). The essentials:
(§1)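 Binding across the scanMAX kinase panel was tested at 1 uM compound. % control = (compound − positive control)/(negative control − positive control) × 100; below 35 counted as active.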

Assay [2] has as its target T2, scanMAX Kinase assay panel (Homo sapiens, UniProt Q8TF76).
T2 construct: purchased DiscoverX
T2 sequence (Q8TF76 1-798): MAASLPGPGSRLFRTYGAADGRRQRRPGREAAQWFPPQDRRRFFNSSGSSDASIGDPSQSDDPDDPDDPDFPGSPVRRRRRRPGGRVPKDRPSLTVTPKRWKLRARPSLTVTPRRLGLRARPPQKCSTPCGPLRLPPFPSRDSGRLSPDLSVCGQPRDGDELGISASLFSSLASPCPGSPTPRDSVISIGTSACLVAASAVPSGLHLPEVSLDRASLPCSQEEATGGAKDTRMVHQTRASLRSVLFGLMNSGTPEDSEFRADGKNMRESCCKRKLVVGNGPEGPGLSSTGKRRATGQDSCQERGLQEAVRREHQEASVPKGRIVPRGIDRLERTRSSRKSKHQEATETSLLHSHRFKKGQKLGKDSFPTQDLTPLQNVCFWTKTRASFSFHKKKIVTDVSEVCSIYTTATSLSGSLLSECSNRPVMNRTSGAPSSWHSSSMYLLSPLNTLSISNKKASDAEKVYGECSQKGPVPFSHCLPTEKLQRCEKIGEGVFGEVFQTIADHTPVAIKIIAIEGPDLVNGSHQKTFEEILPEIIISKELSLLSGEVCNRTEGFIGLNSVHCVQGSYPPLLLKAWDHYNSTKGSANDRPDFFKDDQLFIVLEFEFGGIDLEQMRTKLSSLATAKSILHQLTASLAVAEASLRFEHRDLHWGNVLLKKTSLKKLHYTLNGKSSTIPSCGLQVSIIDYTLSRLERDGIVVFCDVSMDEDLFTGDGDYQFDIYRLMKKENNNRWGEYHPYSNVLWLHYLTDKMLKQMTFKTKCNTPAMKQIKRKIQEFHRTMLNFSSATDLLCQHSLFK
The settings on record: HASPIN; 1 uM; read-out: Percent Control (%). The essentials: as §1

In assay [3] the target is T3, scanMAX Kinase assay panel (Homo sapiens, UniProt Q9BYP7).
T3 construct: purchased DiscoverX
T3 sequence (Q9BYP7 whole entry): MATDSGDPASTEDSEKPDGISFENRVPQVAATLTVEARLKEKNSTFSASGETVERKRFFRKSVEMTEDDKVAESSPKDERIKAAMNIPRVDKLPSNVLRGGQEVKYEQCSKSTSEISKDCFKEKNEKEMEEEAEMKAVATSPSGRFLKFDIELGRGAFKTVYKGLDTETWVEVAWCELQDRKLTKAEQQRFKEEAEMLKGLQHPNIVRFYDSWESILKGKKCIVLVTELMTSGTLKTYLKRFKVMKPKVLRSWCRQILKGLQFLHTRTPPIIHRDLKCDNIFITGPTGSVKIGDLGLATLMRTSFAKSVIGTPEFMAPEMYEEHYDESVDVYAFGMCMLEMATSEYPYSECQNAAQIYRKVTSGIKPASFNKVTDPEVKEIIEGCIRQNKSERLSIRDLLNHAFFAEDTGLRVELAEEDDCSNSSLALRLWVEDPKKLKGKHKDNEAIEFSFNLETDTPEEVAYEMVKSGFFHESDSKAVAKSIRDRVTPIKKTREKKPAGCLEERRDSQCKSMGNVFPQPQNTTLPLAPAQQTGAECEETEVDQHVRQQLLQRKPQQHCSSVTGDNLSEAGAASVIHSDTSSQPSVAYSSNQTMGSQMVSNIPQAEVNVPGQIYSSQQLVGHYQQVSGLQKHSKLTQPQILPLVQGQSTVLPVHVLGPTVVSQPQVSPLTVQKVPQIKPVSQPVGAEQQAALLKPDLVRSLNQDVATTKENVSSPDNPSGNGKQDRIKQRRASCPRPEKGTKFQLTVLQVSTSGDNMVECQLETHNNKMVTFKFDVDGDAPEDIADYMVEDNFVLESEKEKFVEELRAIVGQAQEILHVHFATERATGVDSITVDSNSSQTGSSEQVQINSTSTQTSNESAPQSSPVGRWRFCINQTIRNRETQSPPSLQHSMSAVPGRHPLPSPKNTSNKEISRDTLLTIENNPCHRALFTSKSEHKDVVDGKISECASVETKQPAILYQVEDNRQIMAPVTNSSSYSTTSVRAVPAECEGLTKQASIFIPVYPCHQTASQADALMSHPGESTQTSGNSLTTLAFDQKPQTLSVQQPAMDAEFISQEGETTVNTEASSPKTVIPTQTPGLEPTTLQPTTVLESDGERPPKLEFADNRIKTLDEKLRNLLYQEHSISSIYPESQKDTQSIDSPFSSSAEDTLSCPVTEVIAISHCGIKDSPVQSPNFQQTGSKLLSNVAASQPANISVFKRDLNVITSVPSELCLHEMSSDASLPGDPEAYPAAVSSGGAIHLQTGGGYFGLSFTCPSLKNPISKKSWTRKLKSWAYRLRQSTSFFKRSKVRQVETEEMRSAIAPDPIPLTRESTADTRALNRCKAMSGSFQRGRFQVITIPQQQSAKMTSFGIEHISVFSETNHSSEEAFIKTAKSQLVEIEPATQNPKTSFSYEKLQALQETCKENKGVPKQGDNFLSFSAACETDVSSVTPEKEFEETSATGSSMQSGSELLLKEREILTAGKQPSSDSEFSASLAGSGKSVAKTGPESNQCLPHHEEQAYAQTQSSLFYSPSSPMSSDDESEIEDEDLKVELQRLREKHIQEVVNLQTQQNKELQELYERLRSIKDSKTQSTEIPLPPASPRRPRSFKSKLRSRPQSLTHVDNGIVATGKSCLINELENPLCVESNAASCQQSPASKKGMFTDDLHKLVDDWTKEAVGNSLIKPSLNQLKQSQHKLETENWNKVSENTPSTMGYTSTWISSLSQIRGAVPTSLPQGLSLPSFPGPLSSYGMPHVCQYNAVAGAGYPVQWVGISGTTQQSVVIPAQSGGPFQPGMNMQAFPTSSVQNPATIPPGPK
The note with it: WNK3; 1 uM; read-out: Percent Control (%). The essentials:
as §1

Consider `Cc1ccc(C(=O)Nc2ccc(CN3CCN(C)CC3)c(C(F)(F)F)c2)cc1C#Cc1cnc2c(Nc3cnn(C)c3)cccn12` [Example 1, 4-methyl-3-((8-((1-methyl-1H-pyrazol-4-yl)amino)imidazo[1,2-a]pyridin-3-yl)ethynyl)-N-(4-((4-methylpiperazin-1-yl)methyl)-3-(trifluoromethyl)phenyl)benzamide], for which the remaining binding at 1 µM in assay [1] was found to be 71%; in assay [2] it was 80%; in assay [3], 85%.

Take `Cc1cn(-c2cc(NC(=O)c3ccc(C)c(C#Cc4cnc5c(Nc6cnn(C)c6)cccn45)c3)cc(C(F)(F)F)c2)cn1` [Example 12, 4-methyl-N-(3-(4-methyl-1H-imidazol-1-yl)-5-(trifluoromethyl)phenyl)-3-((8-((1-methyl-1H-pyrazol-4-yl)amino)imidazo[1,2-a]pyridin-3-yl)ethynyl)benzamide]: the remaining binding at 1 µM in assay [1], in assay [2] and in assay [3] was 100% throughout.

For the compound `Cc1ccc(NC(=O)C2(C(=O)Nc3ccc(F)cc3)CC2)cc1C#Cc1cnc2c(Nc3cnn(C(C)C)c3)cccn12` [Example 78], the figures for the remaining binding at 1 µM in assay [1], in assay [2] and in assay [3] were 94%, 85% and 100%, respectively.

The record behind these values is US10870647B2, “Imidazopyridine derivative, method for preparing same, and pharmaceutical composition containing same as active ingredient for preventing or treating cancer” (DAEGU-GYEONGBUK MEDICAL INNOVATION FOUNDATION, priority 2016, dated 2020).
